Earlier results in patent publication US5739081A, “Water dispersible granules of liquid pesticides” (ICI Australia Operations Proprietary Ltd., priority 1992, dated 1998).
Converted amounts (≈) assume the structure as drawn.

conditions: in water

Row | Compound | Solubility in water [µg/mL]
1 | C#CCON=C1CC2CCC1(C)C2(C)C (racemic) [Heptopargil] | 1000 (≈ 4870 µM)
2 | CCCCOCN(C(=O)CCl)c1c(CC)cccc1CC [Butachlor] | 23 (≈ 73.8 µM)
3 | CCOP(=S)(NC(C)CC)Oc1cc(C)ccc1[N+](=O)[O-] (stereo not drawn) [Butamifos] | 5.1 (≈ 15.3 µM)
4 | CCSC(=O)N(CC(C)C)CC(C)C [Butylate] | 46 (≈ 212 µM)
5 | CCOP(=O)(OCC)OC(=CCl)c1ccc(Cl)cc1Cl [Chlorfenvinphos] | 145 (≈ 403 µM)
6 | CC1(C)C(/C=C(\Cl)C(F)(F)F)C1C(=O)OC(C#N)c1cccc(Oc2ccccc2)c1 (stereo not drawn) [Cyhalothrin] | 0.003 (≈ 0.00667 µM)
7 | CCSCCSP(=O)(OC)OC [Demeton-S-methyl] | 3300 (≈ 14300 µM)
8 | CCOP(=S)(OCC)SCCSCC [Disulfoton] | 25 (≈ 91.1 µM)
9 | COP(=S)(OC)Oc1ccc([N+](=O)[O-])c(C)c1 [Fenitrophion] | 14 (≈ 50.5 µM)
10 | CC(Cc1ccc(C(C)(C)C)cc1)CN1C[C@@H](C)O[C@@H](C)C1 (stereo partly drawn) [Fenpropimorph] | 10 (≈ 33 µM)
11 | CCCCOC(=O)[C@@H](C)Oc1ccc(Oc2ccc(C(F)(F)F)cn2)cc1 [Fluazifop-P-butyl] | 1 (≈ 2.61 µM)
12 | COP(=O)(OC)OC1=C(Cl)C2C=CCC12 (stereo not drawn) [Heptenophos] | 2200 (≈ 8780 µM)
13 | CCOC(=O)/C=C(C)/C=C/CC(C)CCCC(C)C (stereo not drawn) [Hydroprene] | 0.54 (≈ 2.03 µM)
14 | CCOP(=S)(NC(C)C)Oc1ccccc1C(=O)OC(C)C (stereo not drawn) [Isofenphos] | 23.8 (≈ 68.9 µM)
15 | CC1(C)[C@H](C(=O)O[C@H](C#N)c2cccc(Oc3ccccc3)c2)[C@@H]1/C=C(\Cl)C(F)(F)F [Lambda-cyhalothrin] | 0.005 (≈ 0.0111 µM)
16 | CCOP(=O)(N=C1SCC(C)S1)OCC (stereo not drawn) [Mephosfolan] | 57 (≈ 212 µM)
17 | CCc1cccc(C)c1N(C(=O)CCl)C(C)COC (stereo not drawn) [Metolachlor] | 530 (≈ 1870 µM)
18 | CNC(=O)CSP(=O)(OC)OC [Omethoate] | 500 (≈ 2350 µM)
19 | CCOP(=S)(OCC)Oc1ccc([N+](=O)[O-])cc1 [Parathion] | 24 (≈ 82.4 µM)
20 | CCCCN(CC)C(=O)SCCC [Pebulate] | 60 (≈ 295 µM)
21 | CCN(CC)c1nc(C)cc(OP(=S)(OC)OC)n1 [Pirimiphos-methyl] | 5 (≈ 16.4 µM)
22 | C#CCOS(=O)OC1CCCCC1Oc1ccc(C(C)(C)C)cc1 (stereo not drawn) [Propargite] | 1.9 (≈ 5.42 µM)
23 | CCNP(=S)(OC)O/C(C)=C/C(=O)OC(C)C (stereo not drawn) [Propetamphos] | 110 (≈ 391 µM)
24 | CCCC1COC(Cn2cncn2)(c2ccc(Cl)cc2Cl)O1 (stereo not drawn) [Propiconazole] | 110 (≈ 321 µM)
25 | CCCN(CCC)C(=O)SCc1ccccc1 [Prosulfocarb] | 13.2 (≈ 52.5 µM)
26 | CCCSP(=O)(OCC)Oc1cnn(-c2ccc(Cl)cc2)c1 (stereo not drawn) [Pyraclofos] | 33 (≈ 91.5 µM)
27 | CON=C(Cc1cccnc1)c1ccc(Cl)cc1Cl [Pyrifenox] | 115 (≈ 390 µM)
28 | CCN(CC)C(=O)SCc1ccc(Cl)cc1 [Thiobencarb] | 30 (≈ 116 µM)
29 | CCSCCSP(=S)(OC)OC [Thiometon] | 200 (≈ 812 µM)
30 | CCCCCCCCCCCCCN1CC(C)OC(C)C1 (stereo not drawn) [Tridemorph] | 11.7 (≈ 39.3 µM)

same assay, conditions: in water; in words

Row | Compound | Solubility in water
31 | CC(C)N(Cc1ccccc1)C(=O)C(C)(C)C [Tebutam] | Almost Insoluble
32 | Dinocap | Sp. soluble

same assay, conditions: water

Row | Compound | Solubility in water [µg/mL]
33 | CCOP(=S)(OCC)SCCl [Chlorimephos] | 60 (≈ 256 µM)
34 | CCOP(=S)(OCC)Oc1cc(C)nc(C(C)C)n1 [Diazinon] | 40 (≈ 131 µM)
35 | CC1(C)C(C=C(Cl)Cl)C1C(=O)OCc1cccc(Oc2ccccc2)c1 (stereo not drawn) [Permethrin] | 0.2 (≈ 0.511 µM)
36 | CCCSP(=O)(OCC)Oc1ccc(Br)cc1Cl (stereo not drawn) [Profenofos] | 20 (≈ 53.5 µM)
